Here are results for four compounds from patent US20100317673A1, “N-HETEROCYCLIC-IMIDAZO[1,2-a]PYRIDINE-2-CARBOXAMIDE DERIVATIVES, THEIR PREPARATION AND THEIR THERAPEUTIC APPLICATION” (SANOFI-AVENTIS, priority 2008, published 2010).

The target of this assay is T1, mouse Nurr1 receptor (Mus musculus, UniProt Q06219).
T1 construct: a cell line (N2A) endogenously expressing the mouse Nurr1 receptor; host or cells: Neuro-2A (N2A) mouse neuroblastoma cells stably transfected with 8NBRE-luciferase
As to the kind of experiment: In vitro activity on N2A cells (NBRE-luciferase reporter). The format is cell-based. The note with it: N2A (Neuro-2A) cells endogenously expressing mouse Nurr1, stably transfected with 8NBRE-luciferase; 24 hours incubation. The method, then: The activity of the compounds according to the invention was evaluated on a cell line (N2A) endogenously expressing the mouse Nurr1 receptor and stably transfected with the NOT binding response element (NBRE) coupled to the luciferase reporter gene. The EC50 values are between 0.01 and 1000 nM. The assays were carried out according to the procedure described below.
The Neuro-2A cell line comes from a standard commercial source (ATCC). The Neuro-2A clone was obtained, from a spontaneous tumour originating from an A albino mouse strain, by R. J Klebe et al. This Neuro-2A line is subsequently stably transfected with 8NBRE-luciferase. The N2A-8NBRE cells are cultured until confluence in 75 cm^2 culture flasks containing DMEM supplemented with 10% of foetal calf serum, 4.5 g/l of glucose and 0.4 mg/ml of geneticin. After a week of culture, the cells are recovered with 0.25% trypsin for 30 seconds and then resuspended in DMEM without phenol red, containing 4.5 g/l of glucose and 10% of Hyclone delipidized serum, and deposited into transparent-bottom 96-well white plates. The cells are deposited at a rate of 60 000 per well in 75 μl for 24 hours before the addition of the products. The products are applied in 25 μl and incubated for a further 24 hours. On the day of the measurement, an equivalent volume (100 μl) of Steadylite is added to each well and then left for a period of 30 minutes in order to obtain complete cell lysis and maximum signal production. The plates are subsequently measured in a luminescence counter for microplates after having been sealed with an adhesive film. The products are prepared in the form of a stock solution at 10^−2M and then diluted in 100% of DMSO. Each product concentration is prediluted in culture medium before incubation with the cells, thus containing 0.625% final concentration of DMSO.
In general terms: A reporter such as luciferase makes a cellular process visible.

Each structure is given as a SMILES string.

Usually EC50 stands for the concentration that produces a half-maximal response. Lower therefore signals a more potent agent.

T1 sequence (Q06219 whole entry): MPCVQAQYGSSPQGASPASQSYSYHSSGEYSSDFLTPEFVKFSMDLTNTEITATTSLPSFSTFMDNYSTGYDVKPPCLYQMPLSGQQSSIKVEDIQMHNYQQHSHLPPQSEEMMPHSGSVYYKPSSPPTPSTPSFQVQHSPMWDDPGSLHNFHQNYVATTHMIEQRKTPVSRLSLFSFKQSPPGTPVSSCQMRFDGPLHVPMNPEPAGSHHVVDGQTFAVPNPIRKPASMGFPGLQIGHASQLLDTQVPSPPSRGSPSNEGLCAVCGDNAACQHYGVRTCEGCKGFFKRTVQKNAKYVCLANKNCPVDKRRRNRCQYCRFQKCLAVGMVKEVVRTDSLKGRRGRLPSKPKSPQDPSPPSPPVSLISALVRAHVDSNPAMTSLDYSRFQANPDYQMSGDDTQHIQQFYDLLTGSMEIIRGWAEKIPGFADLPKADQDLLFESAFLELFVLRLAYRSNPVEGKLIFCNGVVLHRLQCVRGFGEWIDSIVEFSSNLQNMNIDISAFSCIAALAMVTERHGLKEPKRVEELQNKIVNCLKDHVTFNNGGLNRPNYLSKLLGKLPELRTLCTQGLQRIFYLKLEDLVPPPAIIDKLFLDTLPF

Compound `CN(C)c1ccc2nc(C(=O)Nc3ccon3)cn2c1` [Compound 39, 6-(Dimethylamino)-N-(isoxazol-3-yl)imidazo[1,2-a]pyridine-2-carboxamide] returned an EC50 of 10.5 nM.

On to `CN(C)c1ccc2nc(C(=O)Nc3ccccn3)cn2c1` [Compound 8, 6-(Dimethylamino)-N-(pyridin-2-yl)imidazo[1,2-a]pyridine-2-carboxamide], for which the EC50 was 0.5 nM.

`O=C(Nc1ccccn1)c1cn2cc(Cl)ccc2n1` [Compound 4, 6-Chloro-N-(pyridin-2-yl)imidazo[1,2-a]pyridine-2-carboxamide]: it took 2.2 nM to reach a half-maximal effect (EC50).

The compound `O=C(Nc1ccccn1)c1cn2cc(-c3cccc(CO)c3)ccc2n1` [Compound 7, 6-[3-(Hydroxymethyl)phenyl]-N-(pyridin-2-yl)imidazo[1,2-a]pyridine-2-carboxamide] registered an EC50 of 0.04 nM.
